{"source": "paper PMC10323144", "about": "“Garbage in, garbage out: how reliable training data improved a virtual screening approach against SARS-CoV-2 MPro” (Frontiers in Pharmacology, 2023)", "origin": "cited, not measured here", "note": "Square brackets hold non-standard residues; d marks the D form. Peptide text beside a SMILES is read from it. Nle = CCCC[CH](N)C(=O)O", "data": [{"tested_on": "MPro", "conditions": "compiled from peer-reviewed sources (287 compounds) ref the 18 original articles; cited from earlier work", "values": [{"compound": "Cc1ccc(NC(=O)Cc2cccc(Cl)c2)cn1", "note": "[EDG-MED0da5ad92-13]", "Class (MPro activity class)": "0 (compounds with IC50 > 20 μM, percentage inhibition <80% at 20 µM or 50 μM, or percentage enzyme inhibition <50% at 10 µM were labelled as INACTIVE)"}, {"compound": "O=C(O)C(S)=Cc1c[nH]c2ccc(F)cc12", "note": "[PD151746]", "Class (MPro activity class)": "0 (compounds with IC50 > 20 μM, percentage inhibition <80% at 20 µM or 50 μM, or percentage enzyme inhibition <50% at 10 µM were labelled as INACTIVE)"}, {"compound": "CC(C)(C(=O)NCC(F)(F)C(F)(F)F)C(=O)N[C@@H]1C(=O)Nc2ccccc2-c2ccccc21", "note": "[RO4929097]", "Class (MPro activity class)": "0 (compounds with IC50 > 20 μM, percentage inhibition <80% at 20 µM or 50 μM, or percentage enzyme inhibition <50% at 10 µM were labelled as INACTIVE)"}, {"compound": "O=S(=O)(CC1CS1)c1ccc(Oc2ccccc2)cc1", "note": "(stereo not drawn) [SB-3CT]", "Class (MPro activity class)": "0 (compounds with IC50 > 20 μM, percentage inhibition <80% at 20 µM or 50 μM, or percentage enzyme inhibition <50% at 10 µM were labelled as INACTIVE)"}, {"compound": "CC(C)(C)C#Cc1cc(N(C(=O)[C@H]2CC[C@H](C)CC2)[C@H]2CC[C@H](O)CC2)c(C(=O)O)s1", "note": "[Lomibuvir]", "Class (MPro activity class)": "0 (compounds with IC50 > 20 μM, percentage inhibition <80% at 20 µM or 50 μM, or percentage enzyme inhibition <50% at 10 µM were labelled as INACTIVE)"}, {"compound": "O=C(O)C1OC(Oc2cc(O)c3c(=O)cc(-c4ccccc4)oc3c2)C(O)C(O)C1O", "note": "[Chrysin-7-O-β-D-glucoronide]", "Class (MPro activity class)": "0 (compounds with IC50 > 20 μM, percentage inhibition <80% at 20 µM or 50 μM, or percentage enzyme inhibition <50% at 10 µM were labelled as INACTIVE)"}, {"compound": "N#Cc1ccccc1-c1cc(-c2cc(Cl)cc(OCc3ccccc3)c2)c(=O)n(-c2cccnc2)c1", "note": "[compound 7]", "Class (MPro activity class)": "1 (Compounds with IC50 < 10 µM or with a percentage of enzyme inhibition >50% at 10 µM were labelled as ACTIVE)"}, {"compound": "N#Cc1ccccc1-c1cc(-c2cc(Cl)cc(Cl)c2)c(=O)n(-c2cccnc2)c1", "note": "[compound 4]", "Class (MPro activity class)": "1 (Compounds with IC50 < 10 µM or with a percentage of enzyme inhibition >50% at 10 µM were labelled as ACTIVE)"}, {"compound": "COc1ccc(C2CC(c3cccs3)=NN2C(=O)CCl)cc1OC", "note": "(stereo not drawn) [MAT-POS-916a2c5a-1]", "Class (MPro activity class)": "1 (Compounds with IC50 < 10 µM or with a percentage of enzyme inhibition >50% at 10 µM were labelled as ACTIVE)"}, {"compound": "Cc1nn(-c2ccccc2)c(Nc2cccc(C(F)(F)F)c2)c1NS(C)(=O)=O", "note": "[LASSBio-428 (10)]", "Class (MPro activity class)": "0 (compounds with IC50 > 20 μM, percentage inhibition <80% at 20 µM or 50 μM, or percentage enzyme inhibition <50% at 10 µM were labelled as INACTIVE)"}, {"compound": "COc1cnc(-n2cnc(C)n2)c2[nH]cc(C(=O)C(=O)N3CCN(C(=O)c4ccccc4)CC3)c12", "note": "[Temsavir]", "Class (MPro activity class)": "0 (compounds with IC50 > 20 μM, percentage inhibition <80% at 20 µM or 50 μM, or percentage enzyme inhibition <50% at 10 µM were labelled as INACTIVE)"}, {"compound": "N[C@@H](CC(=O)N1CCn2c(nnc2C(F)(F)F)C1)Cc1cc(F)c(F)cc1F", "note": "[Sitagliptin]", "Class (MPro activity class)": "0 (compounds with IC50 > 20 μM, percentage inhibition <80% at 20 µM or 50 μM, or percentage enzyme inhibition <50% at 10 µM were labelled as INACTIVE)"}, {"compound": "O=c1[nH]cc(-c2cc(-c3cc(Cl)cc(OCCc4ccccc4)c3)c(=O)n(-c3cccnc3)c2)c(=O)[nH]1", "note": "[compound 15]", "Class (MPro activity class)": "1 (Compounds with IC50 < 10 µM or with a percentage of enzyme inhibition >50% at 10 µM were labelled as ACTIVE)"}, {"compound": "Maraviroc", "Class (MPro activity class)": "0 (compounds with IC50 > 20 μM, percentage inhibition <80% at 20 µM or 50 μM, or percentage enzyme inhibition <50% at 10 µM were labelled as INACTIVE)"}, {"compound": "Cn1c(=O)cc(N2CCC[C@@H](N)C2)n(Cc2ccccc2C#N)c1=O", "note": "[Alogliptin]", "Class (MPro activity class)": "0 (compounds with IC50 > 20 μM, percentage inhibition <80% at 20 µM or 50 μM, or percentage enzyme inhibition <50% at 10 µM were labelled as INACTIVE)"}, {"compound": "O=C(CCl)N1CCN(S(=O)(=O)c2cccc(F)c2)CC1", "note": "[LON-WEI-8f408cad-4]", "Class (MPro activity class)": "1 (Compounds with IC50 < 10 µM or with a percentage of enzyme inhibition >50% at 10 µM were labelled as ACTIVE)"}, {"compound": "CC(C)C[C@H](NC(=O)[C@H](Cc1ccccc1)NC(=O)c1cnccn1)B(O)O", "note": "[bortezomib]", "Class (MPro activity class)": "0 (compounds with IC50 > 20 μM, percentage inhibition <80% at 20 µM or 50 μM, or percentage enzyme inhibition <50% at 10 µM were labelled as INACTIVE)"}, {"compound": "C=CC(=O)N(c1ccc(C(C)(C)C)cc1)C(C(=O)NCCc1cccc(F)c1)c1cccnc1", "note": "(stereo not drawn) [LON-WEI-adc59df6-47]", "Class (MPro activity class)": "1 (Compounds with IC50 < 10 µM or with a percentage of enzyme inhibition >50% at 10 µM were labelled as ACTIVE)"}, {"compound": "Cc1cc(C#N)cc(C)c1Oc1nc(Nc2ccc(C#N)cc2)nc(N)c1Br", "note": "[Etravirine]", "Class (MPro activity class)": "0 (compounds with IC50 > 20 μM, percentage inhibition <80% at 20 µM or 50 μM, or percentage enzyme inhibition <50% at 10 µM were labelled as INACTIVE)"}, {"compound": "CC(C)CC(C=O)NC(=O)C(NS(=O)(=O)c1ccc(F)cc1)C(C)C", "note": "(stereo not drawn) [Calpain inhibitor VI]", "Class (MPro activity class)": "0 (compounds with IC50 > 20 μM, percentage inhibition <80% at 20 µM or 50 μM, or percentage enzyme inhibition <50% at 10 µM were labelled as INACTIVE)"}, {"compound": "O=c1cc(-c2ccccc2)oc2cc(O)cc(O)c12", "note": "[Chrysin]", "Class (MPro activity class)": "0 (compounds with IC50 > 20 μM, percentage inhibition <80% at 20 µM or 50 μM, or percentage enzyme inhibition <50% at 10 µM were labelled as INACTIVE)"}, {"compound": "CN(C)C(=O)COC(=O)Cc1ccc(OC(=O)c2ccc(NC(=N)N)cc2)cc1", "note": "[Camostat]", "Class (MPro activity class)": "0 (compounds with IC50 > 20 μM, percentage inhibition <80% at 20 µM or 50 μM, or percentage enzyme inhibition <50% at 10 µM were labelled as INACTIVE)"}, {"compound": "C[C@H](NC(=O)/C(C#N)=C/c1cccc(Br)n1)c1ccccc1", "note": "[WP1066]", "Class (MPro activity class)": "0 (compounds with IC50 > 20 μM, percentage inhibition <80% at 20 µM or 50 μM, or percentage enzyme inhibition <50% at 10 µM were labelled as INACTIVE)"}, {"compound": "Cc1ccncc1NC(=O)Cc1cc(Cl)cc(OC2CC(=O)N2)c1", "note": "(stereo not drawn) [TRY-UNI-2eddb1ff-7]", "Class (MPro activity class)": "1 (Compounds with IC50 < 10 µM or with a percentage of enzyme inhibition >50% at 10 µM were labelled as ACTIVE)"}, {"compound": "Cc1c(O)cccc1C(=O)N[C@@H](CSc1ccccc1)[C@H](O)CN1C[C@H]2CCCC[C@H]2C[C@H]1C(=O)NC(C)(C)C", "note": "[Nelfinavir]", "Class (MPro activity class)": "0 (compounds with IC50 > 20 μM, percentage inhibition <80% at 20 µM or 50 μM, or percentage enzyme inhibition <50% at 10 µM were labelled as INACTIVE)"}, {"compound": "O=C(C=Cc1ccc(O)c(O)c1)OC1C(O)CC(O)(C(=O)O)CC1O", "note": "(stereo not drawn) [Cryptochlorogenic acid]", "Class (MPro activity class)": "0 (compounds with IC50 > 20 μM, percentage inhibition <80% at 20 µM or 50 μM, or percentage enzyme inhibition <50% at 10 µM were labelled as INACTIVE)"}, {"compound": "CCCCC(C=O)NC(=O)C(CC(C)C)NC(=O)C(CC(C)C)NC(C)=O", "note": "(stereo not drawn) [Calpain inhibitor I] (Ac-Leu-Leu-[Nle]-aldehyde; configuration not given here)", "Class (MPro activity class)": "1 (Compounds with IC50 < 10 µM or with a percentage of enzyme inhibition >50% at 10 µM were labelled as ACTIVE)"}, {"compound": "O=C(C=Cc1ccc(O)c(O)c1)OC1CC(O)(C(=O)O)CC(OC(=O)C=Cc2ccc(O)c(O)c2)C1O", "note": "(stereo not drawn) [Isochlorogenic acid A]", "Class (MPro activity class)": "0 (compounds with IC50 > 20 μM, percentage inhibition <80% at 20 µM or 50 μM, or percentage enzyme inhibition <50% at 10 µM were labelled as INACTIVE)"}, {"compound": "MLN9708", "Class (MPro activity class)": "0 (compounds with IC50 > 20 μM, percentage inhibition <80% at 20 µM or 50 μM, or percentage enzyme inhibition <50% at 10 µM were labelled as INACTIVE)"}, {"compound": "COc1cc(Br)cc(C=NN2C(=O)c3ccccc3NC2c2cc(Br)cc(OC)c2O)c1O", "note": "(stereo not drawn) [QZ3]", "Class (MPro activity class)": "0 (compounds with IC50 > 20 μM, percentage inhibition <80% at 20 µM or 50 μM, or percentage enzyme inhibition <50% at 10 µM were labelled as INACTIVE)"}, {"compound": "Cc1cc2nc3c(=O)[nH]c(=O)nc-3n(C[C@H](O)[C@H](O)[C@H](O)CO)c2cc1C", "note": "[RIBOFLAVIN]", "Class (MPro activity class)": "0 (compounds with IC50 > 20 μM, percentage inhibition <80% at 20 µM or 50 μM, or percentage enzyme inhibition <50% at 10 µM were labelled as INACTIVE)"}, {"compound": "NC(=O)c1ncn([C@@H]2O[C@H](CO)[C@@H](O)[C@H]2O)n1", "note": "[Ribavirin]", "Class (MPro activity class)": "0 (compounds with IC50 > 20 μM, percentage inhibition <80% at 20 µM or 50 μM, or percentage enzyme inhibition <50% at 10 µM were labelled as INACTIVE)"}, {"compound": "NS(=O)(=O)CCc1ccccc1CN1CCN(C(=O)CCl)CC1", "note": "[MIH-UNI-e573136b-5]", "Class (MPro activity class)": "1 (Compounds with IC50 < 10 µM or with a percentage of enzyme inhibition >50% at 10 µM were labelled as ACTIVE)"}, {"compound": "C[C@@H]1O[C@@H](O[C@@H]2[C@@H](O)[C@H](OCCc3ccc(O)c(O)c3)O[C@H](CO)[C@H]2OC(=O)/C=C/c2ccc(O)c(O)c2)[C@H](O)[C@H](O)[C@H]1O", "note": "[Acteoside]", "Class (MPro activity class)": "0 (compounds with IC50 > 20 μM, percentage inhibition <80% at 20 µM or 50 μM, or percentage enzyme inhibition <50% at 10 µM were labelled as INACTIVE)"}, {"compound": "CCC(C)C1OC2(CCC1C)CC1CC(CC=C(C)C(OC3CC(OC)C(OC4CC(OC)C(O)C(C)O4)C(C)O3)C(C)C=CC=C3COC4C(O)C(C)=CC(C(=O)O1)C34O)O2", "note": "(stereo not drawn) [Ivermectin]", "Class (MPro activity class)": "0 (compounds with IC50 > 20 μM, percentage inhibition <80% at 20 µM or 50 μM, or percentage enzyme inhibition <50% at 10 µM were labelled as INACTIVE)"}, {"compound": "COC(=O)N[C@H](C(=O)N1CCC[C@H]1c1nc(-c2ccc(-c3ccc(-c4c[nH]c([C@@H]5CCCN5C(=O)[C@@H](NC(=O)OC)C(C)C)n4)cc3)cc2)c[nH]1)C(C)C", "note": "[Daclatasvir]", "Class (MPro activity class)": "0 (compounds with IC50 > 20 μM, percentage inhibition <80% at 20 µM or 50 μM, or percentage enzyme inhibition <50% at 10 µM were labelled as INACTIVE)"}, {"compound": "CCc1nc(-c2cccc(C)c2)c(-c2ccnc(NC(=O)c3ccccc3)c2)s1", "note": "[TAK-715]", "Class (MPro activity class)": "0 (compounds with IC50 > 20 μM, percentage inhibition <80% at 20 µM or 50 μM, or percentage enzyme inhibition <50% at 10 µM were labelled as INACTIVE)"}, {"compound": "O=c1cc(-c2ccc(O)c(O)c2)oc2cc(O[C@@H]3O[C@H](CO)[C@@H](O)[C@H](O)[C@H]3O)cc(O)c12", "note": "[Luteoloside]", "Class (MPro activity class)": "0 (compounds with IC50 > 20 μM, percentage inhibition <80% at 20 µM or 50 μM, or percentage enzyme inhibition <50% at 10 µM were labelled as INACTIVE)"}, {"compound": "O=C(NC(Cc1cc(=O)[nH]c2ccccc12)C(=O)O)c1ccc(Cl)cc1", "note": "(stereo not drawn) [REBAMIPIDE]", "Class (MPro activity class)": "0 (compounds with IC50 > 20 μM, percentage inhibition <80% at 20 µM or 50 μM, or percentage enzyme inhibition <50% at 10 µM were labelled as INACTIVE)"}]}]}
